Data published in patent US8952024B2, “Herbicidal pyrimidone derivatives” (E I du Pont de Nemours and Company, priority 2009, dated 2015).

Assays:
Assay in all cases: Test B pre-/postemergence plant response
Type in all cases: in vivo
[1] = system: lambsquarters (Chenopodium album); details: for Lambsquarters plant response rating (0 to 100 scale): 62 g ai/ha, 0 is no effect, 13 to 15 days
Summary of the method: (§1)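 Ratings reflect visual comparison with untreated controls 13 to 15 days after application, from 0 (no effect) to 100 (complete control). Application was preemergence to seeded loam/sand soil or postemergence to 1- to 4-leaf plants, with compound in a non-phytotoxic, surfactant-containing solvent.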

[2] = system: yellow nutsedge (Cyperus esculentus); details: for Nutsedge, Yellow plant response rating (0 to 100 scale): 62 g ai/ha, 0 is no effect, 13 to 15 days
Summary of the method: as §1

[3] = system: johnsongrass (Sorghum halepense); details: for Johnsongrass plant response rating (0 to 100 scale): 62 g ai/ha, 0 is no effect, 13 to 15 days
Summary of the method: as §1

corn (Zea mays) = details: for Corn plant response rating (0 to 100 scale): 62 g ai/ha, 0 is no effect, 13 to 15 days
Summary of the method: as §1

[4] = system: goosegrass (Eleusine indica); details: for Goosegrass plant response rating (0 to 100 scale): 62 g ai/ha, 0 is no effect, 13 to 15 days
Summary of the method: as §1

[5] = system: woolly cupgrass (Eriochloa villosa); details: for Cupgrass, Woolly plant response rating (0 to 100 scale): 62 g ai/ha, 0 is no effect, 13 to 15 days
Summary of the method: as §1

[6] = system: velvetleaf (Abutilon theophrasti); details: for Velvetleaf plant response rating (0 to 100 scale): 62 g ai/ha, 0 is no effect, 13 to 15 days
Summary of the method: as §1

[7] = system: wheat (Triticum aestivum); details: for Wheat plant response rating (0 to 100 scale): 62 g ai/ha, 0 is no effect, 13 to 15 days
Summary of the method: as §1

[8] = system: downy bromegrass (Bromus tectorum); details: for Bromegrass, Downy plant response rating (0 to 100 scale): 62 g ai/ha, 0 is no effect, 13 to 15 days
Summary of the method: as §1

wild oat (Avena fatua) = details: for Oat, Wild plant response rating (0 to 100 scale): 62 g ai/ha, 0 is no effect, 13 to 15 days
Summary of the method: as §1

[9] = system: Italian ryegrass (Lolium multiflorum); details: for Ryegrass, Italian plant response rating (0 to 100 scale): 62 g ai/ha, 0 is no effect, 13 to 15 days
Summary of the method: as §1

[10] = system: ragweed (common ragweed, Ambrosia elatior); details: for Ragweed plant response rating (0 to 100 scale): 62 g ai/ha, 0 is no effect, 13 to 15 days
Summary of the method: as §1

soybean (Glycine max) = details: for Soybean plant response rating (0 to 100 scale): 62 g ai/ha, 0 is no effect, 13 to 15 days
Summary of the method: as §1

[11] = system: blackgrass (Alopecurus myosuroides); details: for Blackgrass plant response rating (0 to 100 scale): 62 g ai/ha, 0 is no effect, 13 to 15 days
Summary of the method: as §1

kochia (Kochia scoparia) = details: for Kochia plant response rating (0 to 100 scale): 62 g ai/ha, 0 is no effect, 13 to 15 days
Summary of the method: as §1

[12] = system: pigweed (Amaranthus retroflexus); details: for Pigweed plant response rating (0 to 100 scale): 62 g ai/ha, 0 is no effect, 13 to 15 days
Summary of the method: as §1

[13] = system: large crabgrass (Digitaria sanguinalis); details: for Crabgrass, Large plant response rating (0 to 100 scale): 62 g ai/ha, 0 is no effect, 13 to 15 days
Summary of the method: as §1

[14] = system: Surinam grass (Brachiaria decumbens); details: for Surinam Grass plant response rating (0 to 100 scale): 62 g ai/ha, 0 is no effect, 13 to 15 days
Summary of the method: as §1

[15] = 31 g ai/ha, postemergence, scale 0 to 100, 0 is no effect, 100 is complete control
[16] = postemergence, 100 is complete control
[17] = Postemergence, 250 g ai/ha, scale 0 to 100 (0 no effect, 100 complete control)
[18] = Postemergence, 125 g ai/ha, visual rating after 13 to 15 days, scale 0 (no effect) to 100 (complete control)
[19] = Postemergence, 125 g ai/ha, scale 0 to 100 (0 no effect, 100 complete control)

CCCn1c(-c2ccsc2)ncc(C(=O)C2=C(O)CCCC2=O)c1=O [Compound 93]
Plant response rating, Lambsquarters [1, 15]: 85
Lambsquarters plant response rating (0 to 100 scale) [1, 16]: 95
Plant response rating, Lambsquarters [1, 17]: 98
Plant response rating, Nutsedge, Yellow [2, 15]: 45
Nutsedge, Yellow plant response rating (0 to 100 scale) [2, 16]: 60
Plant response rating, Nutsedge, Yellow [2, 17]: 70
Plant response rating, Johnsongrass [3, 15]: 10
Johnsongrass plant response rating (0 to 100 scale) [3, 16]: 10
Plant response rating, Johnsongrass [3, 17]: 70
Plant response rating, Corn (corn (Zea mays); [15]): 0
Corn plant response rating (0 to 100 scale) (corn (Zea mays); [16]): 45
Plant response rating, Corn (corn (Zea mays); [18]): 50
Plant response rating, Corn (corn (Zea mays); [17]): 60
Plant response rating, Goosegrass [4, 15]: 60
Goosegrass plant response rating (0 to 100 scale) [4, 16]: 65
Plant response rating, Goosegrass [4, 17]: 75
Plant response rating, Cupgrass, Woolly [5, 15]: 45
Cupgrass, Woolly plant response rating (0 to 100 scale) [5, 16]: 45
Plant response rating, Cupgrass, Woolly [5, 18]: 65
Plant response rating, Cupgrass, Woolly [5, 17]: 70
Plant response rating, Velvetleaf [6, 15]: 85
Velvetleaf plant response rating (0 to 100 scale) [6, 16]: 90
Plant response rating, Velvetleaf [6, 17]: 98
Plant response rating, Wheat [7, 15]: 0
Wheat plant response rating (0 to 100 scale) [7, 16]: 0
Plant response rating, Wheat [7, 17]: 5
Plant response rating, Bromegrass, Downy [8, 15]: 0
Bromegrass, Downy plant response rating (0 to 100 scale) [8, 16]: 0
Plant response rating, Bromegrass, Downy [8, 18]: 0
Plant response rating, Bromegrass, Downy [8, 17]: 0
Plant response rating, Oat, Wild (wild oat (Avena fatua); [15]): 0
Oat, Wild plant response rating (0 to 100 scale) (wild oat (Avena fatua); [16]): 0
Plant response rating, Oat, Wild (wild oat (Avena fatua); [17]): 5
Plant response rating, Ryegrass, Italian [9, 15]: 0
Ryegrass, Italian plant response rating (0 to 100 scale) [9, 16]: 0
Plant response rating, Ryegrass, Italian [9, 17]: 0
Plant response rating, Ragweed [10, 15]: 65
Ragweed plant response rating (0 to 100 scale) [10, 16]: 75
Plant response rating, Ragweed [10, 17]: 98
Plant response rating, Soybean (soybean (Glycine max); [15]): 55
Soybean plant response rating (0 to 100 scale) (soybean (Glycine max); [16]): 80
Plant response rating, Soybean (soybean (Glycine max); [17]): 98
Plant response rating, Blackgrass [11, 15]: 0
Blackgrass plant response rating (0 to 100 scale) [11, 16]: 5
Plant response rating, Blackgrass [11, 18]: 30
Plant response rating, Blackgrass [11, 17]: 30
Plant response rating, Kochia (kochia (Kochia scoparia); [15]): 65
Kochia plant response rating (0 to 100 scale) (kochia (Kochia scoparia); [16]): 85
Plant response rating, Kochia (kochia (Kochia scoparia); [17]): 98
Plant response rating, Pigweed [12, 15]: 90
Pigweed plant response rating (0 to 100 scale) [12, 16]: 95
Plant response rating, Pigweed [12, 17]: 100
Plant response rating, Crabgrass, Large [13, 15]: 70
Crabgrass, Large plant response rating (0 to 100 scale) [13, 16]: 80
Plant response rating, Crabgrass, Large [13, 18]: 80
Plant response rating, Crabgrass, Large [13, 17]: 90
Plant response rating, Surinam Grass [14, 15]: 50
Surinam Grass plant response rating (0 to 100 scale) [14, 16]: 65
Plant response rating, Surinam Grass [14, 17]: 70

O=C1CCCC(O)=C1C(=O)c1cnc(-c2ccsc2)n(CC2CCCO2)c1=O (centres unmarked) [Compound 98]
Plant response rating, Lambsquarters [1, 15]: 95
Lambsquarters plant response rating (0 to 100 scale) [1, 16]: 98
Plant response rating, Lambsquarters [1, 19]: 100
Plant response rating, Lambsquarters [1, 17]: 100
Plant response rating, Nutsedge, Yellow [2, 15]: 50
Nutsedge, Yellow plant response rating (0 to 100 scale) [2, 16]: 60
Plant response rating, Nutsedge, Yellow [2, 19]: 70
Plant response rating, Nutsedge, Yellow [2, 17]: 75
Plant response rating, Johnsongrass [3, 15]: 55
Johnsongrass plant response rating (0 to 100 scale) [3, 16]: 70
Plant response rating, Johnsongrass [3, 19]: 75
Plant response rating, Johnsongrass [3, 17]: 98
Plant response rating, Corn (corn (Zea mays); [15]): 35
Corn plant response rating (0 to 100 scale) (corn (Zea mays); [16]): 35
Plant response rating, Corn (corn (Zea mays); [19]): 55
Plant response rating, Corn (corn (Zea mays); [17]): 70
Plant response rating, Goosegrass [4, 15]: 60
Goosegrass plant response rating (0 to 100 scale) [4, 16]: 75
Plant response rating, Goosegrass [4, 19]: 80
Plant response rating, Goosegrass [4, 17]: 90
Plant response rating, Cupgrass, Woolly [5, 15]: 65
Cupgrass, Woolly plant response rating (0 to 100 scale) [5, 16]: 70
Plant response rating, Cupgrass, Woolly [5, 19]: 75
Plant response rating, Cupgrass, Woolly [5, 17]: 95
Velvetleaf plant response rating (0 to 100 scale) [6, 16]: 95
Plant response rating, Velvetleaf [6, 19]: 95
Plant response rating, Velvetleaf [6, 17]: 98
Wheat plant response rating (0 to 100 scale) [7, 16]: 5
Plant response rating, Wheat [7, 19]: 5
Plant response rating, Wheat [7, 17]: 20
Plant response rating, Bromegrass, Downy [8, 15]: 5
Bromegrass, Downy plant response rating (0 to 100 scale) [8, 16]: 5
Plant response rating, Bromegrass, Downy [8, 19]: 5
Plant response rating, Bromegrass, Downy [8, 17]: 40
Plant response rating, Oat, Wild (wild oat (Avena fatua); [15]): 10
Oat, Wild plant response rating (0 to 100 scale) (wild oat (Avena fatua); [16]): 20
Plant response rating, Oat, Wild (wild oat (Avena fatua); [19]): 20
Plant response rating, Oat, Wild (wild oat (Avena fatua); [17]): 50
Ryegrass, Italian plant response rating (0 to 100 scale) [9, 16]: 5
Plant response rating, Ryegrass, Italian [9, 19]: 15
Plant response rating, Ryegrass, Italian [9, 17]: 15
Ragweed plant response rating (0 to 100 scale) [10, 16]: 75
Plant response rating, Ragweed [10, 19]: 80
Plant response rating, Ragweed [10, 17]: 90
Soybean plant response rating (0 to 100 scale) (soybean (Glycine max); [16]): 98
Plant response rating, Soybean (soybean (Glycine max); [19]): 98
Plant response rating, Soybean (soybean (Glycine max); [17]): 100
Plant response rating, Blackgrass [11, 15]: 0
Blackgrass plant response rating (0 to 100 scale) [11, 16]: 5
Plant response rating, Blackgrass [11, 19]: 20
Plant response rating, Blackgrass [11, 17]: 50
Plant response rating, Kochia (kochia (Kochia scoparia); [15]): 65
Kochia plant response rating (0 to 100 scale) (kochia (Kochia scoparia); [16]): 70
Plant response rating, Kochia (kochia (Kochia scoparia); [19]): 80
Plant response rating, Kochia (kochia (Kochia scoparia); [17]): 98
Plant response rating, Pigweed [12, 15]: 100
Pigweed plant response rating (0 to 100 scale) [12, 16]: 100
Plant response rating, Pigweed [12, 19]: 100
Plant response rating, Pigweed [12, 17]: 100
Plant response rating, Crabgrass, Large [13, 15]: 75
Crabgrass, Large plant response rating (0 to 100 scale) [13, 16]: 75
Plant response rating, Crabgrass, Large [13, 19]: 80
Plant response rating, Crabgrass, Large [13, 17]: 95
Surinam Grass plant response rating (0 to 100 scale) [14, 16]: 75
Plant response rating, Surinam Grass [14, 19]: 85
Plant response rating, Surinam Grass [14, 17]: 90
